Experiments:
[1] = test system: aggressiveness subsequent to electric shocks in mice; test: Anti-aggressive: aggressiveness subsequent to electric shocks, mice; format: in vivo; conditions: Mus musculus, oral, read-out: Oral AD50, electric shock in mice
Description: (§1) a. aggressiveness subsequent to electric shocks in mice and rats,
(§2) In all cases, the AD50 values were determined by the oral route.

rats [2] = test: Oral subacute toxicity in rats; format: in vivo; conditions: 1 month old rats, up to a daily dosage of 100 mg/kg
Text: Oral subacute toxicity in rats was investigated by determination of the death rate (if any), of the change in the weight of some organs, and by hematologic examinations, and the like.
Subacute toxicity in 1 month old rats, with compounds Nos. 11 and 18

[3] = test system: aggressiveness in mice-killing rats; test: Anti-aggressive: aggressiveness in mice-killing rats; format: in vivo; conditions: for ED50: Rattus norvegicus, oral, read-out: Oral AD50, mice-killing rats
Description: (§3) d. aggressiveness in mice-killing rats.
as §2

rotarod test in mice = test: Incapacitating effect: rotarod test; format: in vivo; conditions: compared with chlordiazepoxide
Text: a. Incapacitating effect: rotarod test in mice.

rats [4] = test: Acute toxicity in rats; format: in vivo; conditions: single administration
Text: (§4) Acute toxicity in mice by the sub-cutaneous and oral routes and in rats by the oral route was investigated by determination of the death rate following a single administration of increasing dosages.
(§5) Symbol > means that the LD50 is not attained at the dosage indicated.

[5] = test system: aggressiveness in mice and rats; test: Anti-aggressive tests overall; format: in vivo; conditions: oral
Description: as §1
(§6) b. aggressiveness subsequent to apomorphine injection (1 mg/kg, in vivo) in rats,
(§7) c. aggressiveness subsequent to extended isolation, in mice,
as §3, §2

learning in rats = test: Effect on learning: Shuttle-box test; format: in vivo; conditions: compared with chlordiazepoxide
Text: f. Effect on learning in rats: Shuttle-box test.

[6] = test system: aggressiveness subsequent to extended isolation in mice; test: Anti-aggressive: aggressiveness subsequent to extended isolation, mice; format: in vivo; conditions: Mus musculus, oral, read-out: Oral AD50, isolated mice
Description: as §7, §2

[7] = test system: reserpine effect on temperature and ptosis; test: Anti-reserpine effect on temperature and ptosis; format: in vivo; conditions: compared with Imipramine
Text: b. Anti-reserpine effect on temperature and ptosis.

[8] = test system: aggressiveness subsequent to electric shocks in rats; test: Anti-aggressive: aggressiveness subsequent to electric shocks, rats; format: in vivo; conditions: Rattus norvegicus, oral, read-out: Oral AD50, electric shock in rats
Description: as §1, §2

[9] = test system: narcosis induced by ethanol in mice; test: Effect on narcosis induced by ethanol; format: in vivo
Text: (§8) d. Effect on narcosis induced by pentobarbital and ethanol in mice.

catalepsy and ptosis = test: Neuroleptic effects: catalepsy and ptosis; conditions: in vivo
[10] = test system: aggressiveness subsequent to apomorphine injection in rats; test: Anti-aggressive: aggressiveness subsequent to apomorphine injection, rats; format: in vivo; conditions: Rattus norvegicus, oral, apomorphine injection 1 mg/kg, read-out: Oral AD50, apomorphine, in rats
Description: as §6, §2

[11] = test system: cardiazol convulsions in mice; test: Anti-convulsant effect with respect to cardiazol; format: in vivo; conditions: compared with chlordiazepoxide
Text: c. Anti-convulsant effect with respect to cardiazol in mice.

[12] = test system: narcosis induced by pentobarbital in mice; test: Effect on narcosis induced by pentobarbital; format: in vivo; conditions: compared with chlordiazepoxide
Text: as §8

[13] = test system: stereotypy induced by apomorphine injection in rats; test: Effect on stereotypy induced by apomorphine injection; format: in vivo
Text: e. Effect on stereotypy induced by apomorphine injection in rats.

mice = test: Acute toxicity in mice; format: in vivo; conditions: oral route, single administration
Text: as §4, §5

Acute toxicity in mice = format: in vivo; conditions: mouse, in vivo, single administration
Text: as §4, §5

[14] = test system: antalgic activity in mice; test: Antalgic activity overall (writhing and hot-plate); format: in vivo
Description: (§9) The following tests were carried out:
(§10) a. writhing test in mice, by the oral route (on intraperitoneal administration of acetic acid),
(§11) b. hot-plate test: licking reflex in mice on a plate heated at 65° C.

Acute toxicity in rats = format: in vivo; conditions: rat, in vivo, po, single administration
Text: as §4, §5

psychotropic activity = test: Psychotropic activity, overall profile; conditions: in vivo
Text: The psychotropic and anti-inflammatory effects of the derivatives of this invention were investigated according to several methods described hereinafter.

motor activity in mice = test: Motor-stimulant or -depressant activity, light-beam activometer; format: in vivo; conditions: sub-cutaneous or oral routes
Description: The motor-stimulant or -depressant activities were investigated in mice by the sub-cutaneous or oral routes by means of an activometric technique (light-beam activometer).
The dosages which increase or decrease the number of cases over the 50% limit were determined with respect to concomitantly effected reference tests.

[15] = test system: group toxicity of amphetamine in mice; test: Antagonistic activity on the group toxicity of amphetamine in mice; format: in vivo; conditions: Mus musculus, read-out: AD50, antagonistic activity on the group toxicity of amphetamine
licking reflex in mice = test: Antalgic: hot-plate test, licking reflex; format: in vivo; conditions: Mus musculus, plate heated at 65° C., read-out: AD50 in the hot-plate test (licking reflex)
Description: as §9, §11

writhing in mice = test: Antalgic: writhing test in mice (intraperitoneal acetic acid); format: in vivo; conditions: Mus musculus, oral route, read-out: AD50 on administration of acetic acid
Description: as §9, §10

[16] = sc, read-out: LD50, s.c. route, mice

Cn1c(=O)c2c(nc3n2CCN3CCN2CCN(c3cccc(Cl)c3)CC2)n(C)c1=O [Compound 11]
ED50 [1]: 30 mg/kg
death rate (fatal issue) (rats [2]): No fatal issue was noted
ED50 [3]: 50 mg/kg
activity in the mice-killing test in rats relative to Imipramine ([3]; compared with Imipramine): Superior to Imipramine in the mice-killing test in rats
incapacitating effect (rotarod test in mice): does not, as the latter compound, exhibit incapacitating
LD50, oral route, rats (rats [4]): 1000 mg/kg
anti-aggressive activity (in words) [5]: in most cases, are superior to those of chlordiazepoxide in the anti-aggressive tests
learning-delaying effect (learning in rats): does not, as the latter compound, exhibit incapacitating, anti-convulsant, pentobarbitalor ethanol-induced narcosis-potentiating, or learning-delaying effects
ED50 [6]: 10 mg/kg
anti-reserpinic effect [7]: absence of anti-reserpinic effect
ED50 [8]: 45 mg/kg
ethanol-induced narcosis-potentiating effect [9]: does not, as the latter compound, exhibit incapacitating, anti-convulsant, pentobarbitalor ethanol-induced narcosis-potentiating
catalepsy (catalepsy and ptosis): absence of apomorphinic anti-stereotypy, of catalepsy
ptosis (catalepsy and ptosis): absence of apomorphinic anti-stereotypy, of catalepsy and of ptosis
ED50 [10]: 140 mg/kg
anti-convulsant effect [11]: does not, as the latter compound, exhibit incapacitating, anti-convulsant
pentobarbital-induced narcosis-potentiating effect [12]: does not, as the latter compound, exhibit incapacitating, anti-convulsant, pentobarbitalor ethanol-induced narcosis-potentiating
apomorphinic anti-stereotypy [13]: absence of apomorphinic anti-stereotypy
LD50, oral route, mice (mice): 450 mg/kg
LD50 (Acute toxicity in mice; [16]): > 300 mg/kg

Cn1c(=O)c2c(nc3n2CCCN3CCN2CCN(c3cccc(Cl)c3)CC2)n(C)c1=O [Compound 18, 9-(2-4-(m-chlorophenyl)piperazin-1-yl!-ethyl)1,3-dimethyl-6,7,8,9-tetrahydropyrimidino(2,1-f)-purine-2,4-dione]
ED50 [1]: 15 mg/kg
death rate (fatal issue) (rats [2]): No fatal issue was noted
ED50 [3]: 22 mg/kg
antalgic activity (in words) [14]: more antalgic
LD50 (Acute toxicity in rats): > 100 mg/kg
psychotropic activity (in words) (psychotropic activity): has the same characteristics
ED50 [6]: 9 mg/kg
ED50 (motor activity in mice; Mus musculus, read-out: AD50, sedative action): 7.5 mg/kg
sedative action (in words) (motor activity in mice): more sedative
ED50 [8]: 45 mg/kg
ethanol-induced narcosis-potentiating effect [9]: potentiates ethanol-induced narcosis
ED50 [15]: 20 mg/kg
ED50 [10]: 85 mg/kg
ED50 (licking reflex in mice): 8.5 mg/kg
ED50 (writhing in mice): 13 mg/kg
LD50 (Acute toxicity in mice; po, read-out: LD50, oral route, mice): > 300 mg/kg
LD50 (Acute toxicity in mice; [16]): > 300 mg/kg
